Test results reported in the supplement of paper PMC10307832.

Legend:
Test in all cases: relative viability (nuclei count vs DMSO), 5 days (fraction); higher = more cells survive
Linifanib + Tozasertib = compound: Cc1ccc(F)c(NC(=O)Nc2ccc(-c3cccc4[nH]nc(N)c34)cc2)c1 [Linifanib] + Cc1cc(Nc2cc(N3CCN(C)CC3)nc(Sc3ccc(NC(=O)C4CC4)cc3)n2)n[nH]1 [Tozasertib] (partner 0.1 µM)
Method in brief: (§1)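 Lung cancer cell lines, seeded in 1536-well plates, were treated the following day by pin tool with a single drug or with five library-drug doses (not always all listed) in √10 steps on top of a fixed anchor-drug dose. Cells were fixed and nuclei stained in one step after 5 days, and nuclei were counted. Relative viability is the nuclei count for treated wells divided by that for vehicle wells, reported as medians of duplicate plates.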

Linifanib + Bortezomib = compound: Cc1ccc(F)c(NC(=O)Nc2ccc(-c3cccc4[nH]nc(N)c34)cc2)c1 [Linifanib] + CC(C)C[C@H](NC(=O)[C@H](Cc1ccccc1)NC(=O)c1cnccn1)B(O)O [Bortezomib] (partner 0.002 µM)
Method in brief: as §1

Linifanib + Luminespib = compound: Cc1ccc(F)c(NC(=O)Nc2ccc(-c3cccc4[nH]nc(N)c34)cc2)c1 [Linifanib] + CCNC(=O)c1noc(-c2cc(C(C)C)c(O)cc2O)c1-c1ccc(CN2CCOCC2)cc1 [Luminespib] (partner 0.01 µM)
Method in brief: as §1

Cell Line | relative viability (Linifanib + Tozasertib; first compound 0.03162 µM) | relative viability (Linifanib + Tozasertib; first compound 0.1 µM) | relative viability (Linifanib + Tozasertib; first compound 0.3162 µM) | relative viability (Linifanib + Bortezomib; first compound 0.03162 µM) | relative viability (Linifanib + Bortezomib; first compound 0.1 µM) | relative viability (Linifanib + Bortezomib; first compound 0.3162 µM) | relative viability (Linifanib + Luminespib; first compound 0.03162 µM) | relative viability (Linifanib + Luminespib; first compound 0.1 µM) | relative viability (Linifanib + Luminespib; first compound 0.3162 µM)
HCC-827 | 0.442 | 0.419 | 0.384 | 1.04 | 0.991 | 0.977 | 0.549 | 0.669 | 0.622
HOP-62 | 0.36 | 0.401 | 0.35 | 0.617 | 0.969 | 0.728 | 0.927 | 0.964 | 0.866
LC-2-ad | 0.416 | 0.445 | 0.472 | 0.976 | 1.23 | 0.98 | 0.968 | 0.958 | 1.05
LCLC-97TM1 | 0.205 | 0.231 | 0.189 | 0.866 | 0.868 | 0.56 | 0.721 | 0.766 | 0.595
LCLC-103H | 0.482 | 0.461 | 0.423 | 1.19 | 1.16 | 1.15 | 0.971 | 0.973 | 0.889
LK-2 | 0.155 | 0.177 | 0.2 |  |  |  | 0.189 | 0.201 | 0.232
LOU-NH91 | 0.713 | 0.693 | 0.68 | 0.47 | 0.548 | 0.463 | 0.394 | 0.324 | 0.319
LU99A | 0.277 | 0.306 | 0.317 | 1.13 | 1.16 | 1.21 | 0.205 | 0.246 | 0.268
LXF-289 | 0.185 | 0.173 | 0.172 | 1.04 | 1.01 | 0.952 | 0.766 | 0.866 | 0.674
NCI-H23 | 0.366 | 0.39 | 0.329 | 1.03 | 1.2 | 1.16 | 0.238 | 0.217 | 0.225
NCI-H322M | 0.5 | 0.515 | 0.407 | 1.24 | 1.21 | 1.27 | 0.88 | 0.863 | 0.882
NCI-H358 | 0.113 | 0.112 | 0.106 |  |  |  | 0.366 | 0.374 | 0.416
NCI-H441 | 0.48 | 0.654 | 0.678 | 0.496 | 0.43 | 0.371 | 0.371 | 0.297 | 0.252
NCI-H460 | 0.139 | 0.436 | 0.475 | 1.03 | 1.18 | 0.925 | 0.0304 | 0.0311 | 0.0301
NCI-H520 | 0.382 | 0.456 | 0.418 | 0.773 | 1.07 | 0.497 | 0.171 | 0.204 | 0.226
NCI-H596 | 0.798 | 0.815 | 0.9 | 0.899 | 1.06 | 1.08 | 1.02 | 1.1 | 1.17
NCI-H647 | 0.188 | 0.325 | 0.352 | 1.25 | 1.14 | 1.07 | 0.149 | 0.325 | 0.114
NCI-H650 | 0.704 | 0.733 | 0.73 | 0.816 | 0.814 | 0.864 | 0.816 | 0.611 | 0.71
